{"source": "ChEMBL document CHEMBL6109155", "about": "“Discovery of Phenylacylpiperidine as Novel sEH Inhibitors through Scaffold Hopping of Natural Stilbene” (J Med Chem, 2025)", "key": {"Rattus norvegicus [1]": {"tested_on": "Rattus norvegicus", "test": "Anti-inflammatory activity in Sprague-Dawley rat model of CFA-induced rheumatoid arthritis assessed as […] in new blood vessel formation in synovial tissue at 10 mg/kg, po administered daily measured after 19 days by H and E staining based analysis", "format": "functional, organism-based", "details": "time 19.0 day"}, "Cytochrome P450 2C9": {"biological_target": "Cytochrome P450 2C9 (Homo sapiens, UniProt P11712)", "sequence (P11712 whole entry)": "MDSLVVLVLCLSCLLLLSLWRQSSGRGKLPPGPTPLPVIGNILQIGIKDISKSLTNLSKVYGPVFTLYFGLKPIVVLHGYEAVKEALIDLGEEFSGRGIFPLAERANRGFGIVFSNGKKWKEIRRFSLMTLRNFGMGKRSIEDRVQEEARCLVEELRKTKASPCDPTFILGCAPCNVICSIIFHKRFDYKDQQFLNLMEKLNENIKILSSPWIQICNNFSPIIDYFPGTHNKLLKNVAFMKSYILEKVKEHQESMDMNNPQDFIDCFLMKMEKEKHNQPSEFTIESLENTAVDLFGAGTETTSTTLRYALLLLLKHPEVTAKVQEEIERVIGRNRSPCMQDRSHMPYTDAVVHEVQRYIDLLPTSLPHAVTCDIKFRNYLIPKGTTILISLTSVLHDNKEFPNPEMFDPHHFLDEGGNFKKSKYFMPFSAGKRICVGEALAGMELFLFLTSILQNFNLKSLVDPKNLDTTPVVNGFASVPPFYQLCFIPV", "test": "Inhibition of CYP2C9 in human liver microsomes preincubated for 10 mins followed by NADPH addition measured after 3.5 mins by LC-MS/MS analysis", "format": "ADME, Microsome"}, "Rattus norvegicus [2]": {"tested_on": "Rattus norvegicus", "test": "Anti-inflammatory activity in Sprague-Dawley rat model of CFA-induced rheumatoid arthritis assessed as decrease in paw redness at 10 mg/kg, po administered daily measured after 7 days", "format": "functional, organism-based", "details": "time 7.0 day"}, "[3]": {"test": "Tmax in Sprague-Dawley rat at 20 mg/kg, po measured for 24 hrs", "format": "ADME, organism-based", "details": "in vivo"}, "Rattus norvegicus [4]": {"tested_on": "Rattus norvegicus", "test": "Anti-inflammatory activity in Sprague-Dawley rat model of CFA-induced rheumatoid arthritis assessed as decrease in swelling degree of right paw at 10 mg/kg, po administered daily measured after 4 days", "format": "functional, organism-based", "details": "time 4.0 day"}, "Mus musculus [5]": {"tested_on": "Mus musculus", "test": "Anti-inflammatory activity in BALB/c mouse model of carrageenan-induced paw edema assessed as decrease in plasma 11,12-DHET levels at 10 mg/kg, po measured after 6 hrs relative to control", "format": "functional", "parameters": "scale not given: the % may be the effect or the level left"}, "Rattus norvegicus [6]": {"tested_on": "Rattus norvegicus", "test": "Anti-inflammatory activity in Sprague-Dawley rat model of CFA-induced rheumatoid arthritis assessed as improvement in chondrocytes morphology at 10 mg/kg, po administered daily measured after 19 days by H and E staining based analysis", "format": "functional, organism-based", "details": "time 19.0 day"}, "Rattus norvegicus [7]": {"tested_on": "Rattus norvegicus", "test": "Anti-inflammatory activity in Sprague-Dawley rat model of CFA-induced rheumatoid arthritis assessed as increase in plasma 8,9-EET level at 10 mg/kg, po administered daily measured after 19 days relative to control", "format": "functional", "details": "time 19 day"}, "[8]": {"test": "Oral bioavailability in Sprague-Dawley rat at 20 mg/kg measured for 24 hrs", "format": "ADME, organism-based", "details": "in vivo"}, "Mus musculus [9]": {"tested_on": "Mus musculus", "test": "Anti-inflammatory activity in CD-1 mouse model of cerulein-induced acute pancreatitis assessed as decrease in inflammatory response in pancreas at 10 mg/kg, ip drug administered at 30 mins and 2.5 hrs post-first cerulein injection and measured after 6 hrs post-first cerulein injection by H and E staining based analysis", "format": "functional, organism-based", "details": "time 3.5-5.5 hrs"}, "Rattus norvegicus [10]": {"tested_on": "Rattus norvegicus", "test": "Anti-inflammatory activity in Sprague-Dawley rat model of CFA-induced rheumatoid arthritis assessed as improvement in joint cavity at 10 mg/kg, po administered daily measured after 19 days by H and E staining based analysis", "format": "functional, organism-based", "details": "time 19.0 day"}, "Mus musculus [11]": {"tested_on": "Mus musculus", "test": "Anti-inflammatory activity in CD-1 mouse model of cerulein-induced acute pancreatitis assessed as increase in ratio of pancreatic EET/DHET level at 10 mg/kg, ip drug administered at 30 mins and 2.5 hrs post-first cerulein injection and measured after 6 hrs post-first cerulein injection (reference value: 23.5 to 41.7 %)", "format": "functional", "details": "time 3.5-5.5 hrs"}, "Rattus norvegicus [12]": {"tested_on": "Rattus norvegicus", "test": "Anti-inflammatory activity in Sprague-Dawley rat model of CFA-induced rheumatoid arthritis assessed as decrease in paw swelling at 10 mg/kg, po administered daily measured after 7 days", "format": "functional, organism-based", "details": "time 7.0 day"}, "Rattus norvegicus [13]": {"tested_on": "Rattus norvegicus", "test": "Anti-inflammatory activity in Sprague-Dawley rat model of CFA-induced rheumatoid arthritis assessed as decrease in lymphocytes infiltration in synovial tissue at 10 mg/kg, po administered daily measured after 19 days by H and E staining based analysis", "format": "functional, organism-based", "details": "time 19.0 day"}, "Mus musculus [14]": {"tested_on": "Mus musculus", "test": "Analgesic effect in BALB/c mouse model of acetic acid-induced writhing assessed as reduction in number of writhing episodes at 20 mg/kg, po pretreated for 1 hr followed by acetic acid treatment and measured after 5 to 35 mins relative to control", "format": "functional", "parameters": "scale not given: the % may be the effect or the level left", "details": "time 65-95 min"}, "Rattus norvegicus [15]": {"tested_on": "Rattus norvegicus", "test": "Anti-inflammatory activity in Sprague-Dawley rat model of CFA-induced rheumatoid arthritis assessed as decrease in swelling degree of left paw at 10 mg/kg, po administered daily measured after 16 to 19 days", "format": "functional, organism-based", "details": "time 16-19 day"}, "[16]": {"test": "Ratio of Cmax in kidney to plasma in C57BL/6J mouse at 20 mg/kg, po measured for 24 hrs", "format": "ADME, organism-based", "details": "kidney and plasma"}, "[17]": {"test": "Clearance in Sprague-Dawley rat at 5 mg/kg, iv measured for 24 hrs", "format": "ADME, organism-based", "details": "in vivo"}, "Rattus norvegicus [18]": {"tested_on": "Rattus norvegicus", "test": "Anti-inflammatory activity in Sprague-Dawley rat model of CFA-induced rheumatoid arthritis assessed as BV/TV value at 10 mg/kg, po administered daily measured after 19 days by micro-CT analysis (reference value: 40.047 %)", "format": "functional", "details": "time 19 day"}, "Mus musculus [19]": {"tested_on": "Mus musculus", "test": "Anti-inflammatory activity in BALB/c mouse model of carrageenan-induced paw edema assessed as decrease in plasma 8,9-DHET levels at 10 mg/kg, po measured after 6 hrs relative to control", "format": "functional", "parameters": "scale not given: the % may be the effect or the level left"}, "Rattus norvegicus [20]": {"tested_on": "Rattus norvegicus", "test": "Anti-inflammatory activity in Sprague-Dawley rat model of CFA-induced rheumatoid arthritis assessed as increase in ratio of plasma 8,9-EET to DHET levels at 10 mg/kg, po administered daily measured after 19 days relative to control", "format": "functional", "details": "time 19 day"}, "[21]": {"test": "Cmax in Sprague-Dawley rat at 5 mg/kg, iv measured for 24 hrs", "format": "ADME, organism-based", "details": "in vivo"}, "Rattus norvegicus [22]": {"tested_on": "Rattus norvegicus", "test": "Anti-inflammatory activity in Sprague-Dawley rat model of CFA-induced rheumatoid arthritis assessed as BS value at 10 mg/kg, po administered daily measured after 19 days by micro-CT analysis (reference value: 636.014 mm2)", "format": "functional", "details": "time 19 day"}, "Mus musculus [23]": {"tested_on": "Mus musculus", "test": "Anti-inflammatory activity in BALB/c mouse model of carrageenan-induced paw edema assessed as decrease in plasma 14,15-DHET levels at 10 mg/kg, po measured after 6 hrs relative to control", "format": "functional", "parameters": "scale not given: the % may be the effect or the level left"}, "Rattus norvegicus [24]": {"tested_on": "Rattus norvegicus", "test": "Anti-inflammatory activity in Sprague-Dawley rat model of CFA-induced rheumatoid arthritis assessed as TV value at 10 mg/kg, po administered daily measured after 19 days by micro-CT analysis (reference value: 92.617 mm3)", "format": "functional", "details": "time 19 day"}, "Rattus norvegicus [25]": {"tested_on": "Rattus norvegicus", "test": "Anti-inflammatory activity in Sprague-Dawley rat model of CFA-induced rheumatoid arthritis assessed as increase in plasma 14,15-EET level at 10 mg/kg, po administered daily measured after 19 days relative to control", "format": "functional", "details": "time 19 day"}, "Mus musculus [26]": {"tested_on": "Mus musculus", "test": "Anti-inflammatory activity in BALB/c mouse model of carrageenan-induced paw edema assessed as increase in ratio of 14,15-EET to DHET plasma levels at 10 mg/kg, po measured after 6 hrs relative to control", "format": "functional"}, "Mus musculus [27]": {"tested_on": "Mus musculus", "test": "Anti-inflammatory activity in CD-1 mouse model of cerulein-induced acute pancreatitis assessed as increase in ratio of plasma 14,15-EET/DHET level at 10 mg/kg, ip drug administered at 30 mins and 2.5 hrs post-first cerulein injection and measured after 6 hrs post-first cerulein injection (reference value: 69.8 to 77.3 %)", "format": "functional", "details": "time 3.5-5.5 hrs"}, "Mus musculus [28]": {"tested_on": "Mus musculus", "test": "Anti-inflammatory activity in BALB/c mouse model of carrageenan-induced paw edema assessed as inhibition of paw swelling at 10 mg/kg, po measured after 6 hrs relative to control", "format": "functional"}, "hERG": {"biological_target": "hERG (Homo sapiens, UniProt Q12809)", "sequence (Q12809 whole entry)": "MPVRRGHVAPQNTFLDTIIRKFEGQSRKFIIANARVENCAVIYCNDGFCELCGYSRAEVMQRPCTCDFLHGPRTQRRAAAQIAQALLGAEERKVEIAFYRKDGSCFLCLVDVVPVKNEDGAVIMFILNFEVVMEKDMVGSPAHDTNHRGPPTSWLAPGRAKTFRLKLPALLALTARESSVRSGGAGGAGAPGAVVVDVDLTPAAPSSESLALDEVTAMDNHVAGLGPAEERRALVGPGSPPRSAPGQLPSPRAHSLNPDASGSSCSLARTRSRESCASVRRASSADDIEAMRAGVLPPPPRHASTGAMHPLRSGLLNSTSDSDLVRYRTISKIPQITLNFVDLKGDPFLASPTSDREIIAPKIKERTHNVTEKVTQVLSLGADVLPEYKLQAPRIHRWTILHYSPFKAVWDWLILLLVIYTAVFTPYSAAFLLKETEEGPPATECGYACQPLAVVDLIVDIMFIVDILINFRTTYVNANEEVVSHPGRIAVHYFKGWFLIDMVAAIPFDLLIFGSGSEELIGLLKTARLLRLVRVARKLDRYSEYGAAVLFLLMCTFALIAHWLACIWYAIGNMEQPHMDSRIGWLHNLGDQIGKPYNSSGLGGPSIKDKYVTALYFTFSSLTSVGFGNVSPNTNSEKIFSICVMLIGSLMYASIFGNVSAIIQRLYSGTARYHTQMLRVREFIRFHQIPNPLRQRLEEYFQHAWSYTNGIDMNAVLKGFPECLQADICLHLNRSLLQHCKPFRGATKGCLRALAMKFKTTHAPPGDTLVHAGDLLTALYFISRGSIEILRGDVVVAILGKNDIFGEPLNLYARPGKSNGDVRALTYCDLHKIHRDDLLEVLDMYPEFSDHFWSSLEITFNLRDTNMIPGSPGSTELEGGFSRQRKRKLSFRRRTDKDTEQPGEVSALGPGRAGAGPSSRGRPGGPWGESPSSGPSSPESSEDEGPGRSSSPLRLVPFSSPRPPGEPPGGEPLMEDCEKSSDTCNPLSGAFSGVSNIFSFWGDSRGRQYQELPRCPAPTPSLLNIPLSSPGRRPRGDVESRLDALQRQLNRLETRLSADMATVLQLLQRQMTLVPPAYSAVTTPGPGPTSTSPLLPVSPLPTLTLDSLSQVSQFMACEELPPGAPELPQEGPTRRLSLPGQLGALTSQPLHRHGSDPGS", "test": "Inhibition of hERG at 10 uM by whole-cell patch-clamp method relative to control", "format": "toxicity"}, "Rattus norvegicus [29]": {"tested_on": "Rattus norvegicus", "test": "Anti-inflammatory activity in Sprague-Dawley rat model of CFA-induced rheumatoid arthritis assessed as reduction in hyperplasia in synovial tissue at 10 mg/kg, po administered daily measured after 19 days by H and E staining based analysis", "format": "functional, organism-based", "details": "time 19.0 day"}, "Mus musculus [30]": {"tested_on": "Mus musculus", "test": "Anti-inflammatory activity in BALB/c mouse model of carrageenan-induced paw edema assessed as inhibition of paw swelling at 10 mg/kg, po measured up to 6 hrs relative to control", "format": "functional", "details": "Mus musculus, BALB/c"}}, "note": "Calls of active or inactive are those of the source. The rule behind the calls is not given here."}
{"compound": "COc1cc(CC(=O)N2CCC(NC(=O)NCc3ccc(OC(F)(F)F)cc3)CC2)cc(OC)c1", "values": [{"measurement": "Activity", "setting": "Rattus norvegicus [1]", "value": "Active; Few Newly Formed Blood Vessels Was Observed"}, {"measurement": "IC50", "setting": "Cytochrome P450 2C9", "value": 48.2, "unit": "µM"}, {"measurement": "Activity", "setting": "Rattus norvegicus [2]", "value": "Active"}, {"measurement": "Tmax", "setting": "[3]", "value": 30, "unit": "min"}, {"measurement": "Activity", "setting": "Rattus norvegicus [4]", "value": "Active"}, {"measurement": "Activity", "setting": "Mus musculus [5]", "value": 55.1, "unit": "%"}, {"measurement": "Activity", "setting": "Rattus norvegicus [6]", "value": "Active"}, {"measurement": "Activity", "setting": "Rattus norvegicus [7]", "value": 105, "unit": "%"}, {"measurement": "bioavailability", "setting": "[8]", "value": 8.3, "unit": "%"}, {"measurement": "Activity", "setting": "Mus musculus [9]", "value": "Active"}, {"measurement": "Activity", "setting": "Rattus norvegicus [10]", "value": "Active"}, {"measurement": "Activity", "setting": "Mus musculus [11]", "value": 311, "unit": "%"}, {"measurement": "Activity", "setting": "Rattus norvegicus [12]", "value": "Active"}, {"measurement": "Activity", "setting": "Rattus norvegicus [13]", "value": "Active; Small Lymphocytes Infiltration Was Observed"}, {"measurement": "Activity", "setting": "Mus musculus [14]", "value": 42, "unit": "%"}, {"measurement": "Activity", "setting": "Rattus norvegicus [15]", "value": "Active"}, {"measurement": "Kp at 24 h", "setting": "[16]", "value": 9.43}, {"measurement": "clearance", "setting": "[17]", "value": 38.8, "unit": "mL/min/kg"}, {"measurement": "Activity", "setting": "Rattus norvegicus [18]", "value": 62.73, "unit": "%"}, {"measurement": "Activity", "setting": "Mus musculus [19]", "value": 70.3, "unit": "%"}, {"measurement": "Activity", "setting": "Rattus norvegicus [20]", "value": 203, "unit": "%"}, {"measurement": "Cmax", "setting": "[21]", "value": 3120, "unit": "ng/mL"}, {"measurement": "Activity", "setting": "Rattus norvegicus [22]", "value": 432.009, "unit": "mm2"}, {"measurement": "Activity", "setting": "Mus musculus [23]", "value": 69.8, "unit": "%"}, {"measurement": "Activity", "setting": "Rattus norvegicus [24]", "value": 57.762, "unit": "mm3"}, {"measurement": "Activity", "setting": "Rattus norvegicus [25]", "value": 175, "unit": "%"}, {"measurement": "Activity", "setting": "Mus musculus [26]", "value": 677, "unit": "%"}, {"measurement": "Activity", "setting": "Mus musculus [27]", "value": 905, "unit": "%"}, {"measurement": "inhibition in vivo at 10 mg/kg", "setting": "Mus musculus [28]", "value": 20.8, "unit": "%"}, {"measurement": "inhibition at 10 µM", "setting": "hERG", "value": 12.5, "unit": "%"}, {"measurement": "Activity", "setting": "Rattus norvegicus [29]", "value": "Active; Mild Hyperplasia Was Observed"}, {"measurement": "inhibition in vivo at 10 mg/kg", "setting": "Mus musculus [30]", "value": 38.8, "unit": "%"}]}
